Experimental data: ChEMBL document CHEMBL3045784, “Effects of oleic acid on the tissue factor activity, blood lipids, antioxidant and oxidant parameters of streptozotocin induced diabetic rats fed a high-cholesterol diet” (Med Chem Res, 2010)

Experiments:
[1] = tested on: Rattus norvegicus; assay: Anticoagulant activity in Rattus norvegicus Wistar (rat) diabetic-hyperlipidemic model assessed as decrease in TFa activity in aorta measuring clotting time at 10.91% administered through feeding measured after 12 weeks (reference value: 36.25 +/- 1.39 secs); format: functional
[2] = tested on: Rattus norvegicus; assay: Anticoagulant activity in Rattus norvegicus Wistar (rat) diabetic-hyperlipidemic model assessed as decrease in TFa activity in pancreas measuring clotting time at 10.91% administered through feeding measured after 12 weeks (reference value: 27.25 +/- 2.82 secs); format: functional
[3] = tested on: Rattus norvegicus; assay: Anticoagulant activity in Rattus norvegicus Wistar (rat) diabetic-hyperlipidemic model assessed as decrease in TFa activity in heart measuring clotting time at 10.91% administered through feeding measured after 12 weeks (reference value: 27.13 +/- 3.72 secs); format: functional
[4] = tested on: Rattus norvegicus; assay: Anticoagulant activity in Rattus norvegicus Wistar (rat) diabetic-hyperlipidemic model assessed as decrease in TFa activity in spleen measuring clotting time at 10.91% administered through feeding measured after 12 weeks (reference value: 69.63 +/- 1.77 secs); format: functional
[5] = tested on: Rattus norvegicus; assay: Anticoagulant activity in Rattus norvegicus Wistar (rat) diabetic-hyperlipidemic model assessed as decrease in TFa activity in kidney measuring clotting time at 10.91% administered through feeding measured after 12 weeks (reference value: 52.38 +/- 2 secs); format: functional
[6] = tested on: Rattus norvegicus; assay: Anticoagulant activity in Rattus norvegicus Wistar (rat) diabetic-hyperlipidemic model assessed as decrease in TFa activity in brain measuring clotting time at 10.91% administered through feeding measured after 12 weeks (reference value: 50.5 +/- 1.77 secs); format: functional
[7] = tested on: Rattus norvegicus; assay: Anticoagulant activity in Rattus norvegicus Wistar (rat) diabetic-hyperlipidemic model assessed as decrease in TFa activity in liver measuring clotting time at 10.91% administered through feeding measured after 12 weeks (reference value: 74.38 +/- 4.60 secs); format: functional
[8] = tested on: Rattus norvegicus; assay: Anticoagulant activity in Rattus norvegicus Wistar (rat) diabetic-hyperlipidemic model assessed as decrease in TFa activity in lung measuring clotting time at 10.91% administered through feeding measured after 12 weeks (reference value: 19.25 +/- 3.20 secs); format: functional
[9] = tested on: Rattus norvegicus; assay: Anticoagulant activity in Rattus norvegicus Wistar (rat) diabetic-hyperlipidemic model assessed as fibrinogen level at 10.91% administered through feeding measured after 12 weeks (reference value: 2.13 +/- 0.23 g/l); format: functional
[10] = tested on: Rattus norvegicus; assay: Anticoagulant activity in Rattus norvegicus Wistar (rat) diabetic-hyperlipidemic model assessed as prothombin time at 10.91% administered through feeding measured after 12 weeks (reference value: 14.69 +/- 0.8 secs); format: functional
[11] = tested on: Rattus norvegicus; assay: Anticoagulant activity in Rattus norvegicus Wistar (rat) diabetic-hyperlipidemic model assessed as activated partial thromboplastin time at 10.91% administered through feeding measured after 12 weeks (reference value: 17.13 +/- 1.73 secs); format: functional
[12] = tested on: Rattus norvegicus; assay: Antioxidant activity in Rattus norvegicus Wistar (rat) diabetic-hyperlipidemic model assessed as serum malondialdehyde level at 10.91% administered through feeding measured after 12 weeks by TBARS assay (reference value: 5.78 +/- 0.08 nmol/ml); format: functional
[13] = tested on: Rattus norvegicus; assay: Increase in blood GSH level in Rattus norvegicus Wistar (rat) diabetic-hyperlipidemic model at 10.91% administered through feeding measured after 12 weeks (reference value: 20.31 +/- 0.93 %mg); format: functional
[14] = tested on: Rattus norvegicus; assay: Antihyperlipidemic activity in Rattus norvegicus Wistar (rat) diabetic-hyperlipidemic model assessed as serum total lipid level at 10.91% administered through feeding measured after 12 weeks ( Rvb = 922.25 +/- 41.78 mg/dl); format: functional
[15] = tested on: Rattus norvegicus; assay: Antihyperlipidemic activity in Rattus norvegicus Wistar (rat) diabetic-hyperlipidemic model assessed as serum triglyceride level at 10.91% administered through feeding measured after 12 weeks ( Rvb = 86.45 +/- 5.7 mg/dl); format: functional
[16] = tested on: Rattus norvegicus; assay: Antihyperlipidemic activity in Rattus norvegicus Wistar (rat) diabetic-hyperlipidemic model assessed as serum HDL-cholesterol level at 10.91% administered through feeding measured after 12 weeks ( Rvb = 22.80 +/- 2.41 mg/dl); format: functional
[17] = tested on: Rattus norvegicus; assay: Antihyperlipidemic activity in Rattus norvegicus Wistar (rat) diabetic-hyperlipidemic model assessed as serum LDL-cholesterol level at 10.91% administered through feeding measured after 12 weeks ( Rvb = 74.25 +/- 9.36 mg/dl); format: functional
[18] = tested on: Rattus norvegicus; assay: Toxicity in Rattus norvegicus Wistar (rat) diabetic-hyperlipidemic model assessed as change in body weight at 10.91% administered through feeding measured for 12 weeks ( Rvb = 290 +/-76 g); format: organism-based; conditions: in vivo, po, 2016 h
[19] = tested on: Rattus norvegicus; assay: Antihyperlipidemic activity in Rattus norvegicus Wistar (rat) diabetic-hyperlipidemic model assessed as serum total cholesterol level at 10.91% administered through feeding measured after 12 weeks ( Rvb = 309 +/- 35.88 mg/dl); format: functional
[20] = tested on: Rattus norvegicus; assay: Antidiabetic activity in Rattus norvegicus Wistar (rat) diabetic-hyperlipidemic model assessed as serum glucose level at 10.91% administered through feeding measured after 12 weeks ( Rvb = 194.4 +/- 23.99 mg/dl); format: functional

Which results are given for `CCCCCCCC/C=C\CCCCCCCC(=O)O` [OLEIC ACID]?
Time [1]: 33.5 s; Time [2]: 28.5 s; Time [3]: 28.25 s; Time [4]: 62.25 s; Time [5]: 65.13 s; Time [6]: 60.13 s; Time [7]: 77.25 s; Time [8]: 20.38 s; Activity [9]: 1.97 g/L; PT [10]: 15.1 s; APTT [11]: 17.88 s; Activity [12]: 5.81 nmol/mL; Activity [13]: 29.96 %mg; Activity [14]: 773.75 mg/dL; Activity [15]: 71.68 mg/dL; Activity [16]: 25.53 mg/dL; Activity [17]: 74.63 mg/dL; Activity [18]: 243 g; Activity [19]: 351.3 mg/dL; Activity [20]: 190.63 mg/dL
